For data set [1] the following is noted: cited from earlier work.
Data set [2] in a line: Stability of raw API, stability indicating HPLC method. Format: physicochemical. The following applies: Sodium Fusidate compared with Fusidic acid, Tables 1 and 2. The source says:
In both studies the * Initial denotes the results of the samples tested at the time of receipt of the API from the supplier.

Structures can show the parent of a compound that is named as a salt.

Results on 2 compounds are retold here after patent publication US20120035144A1 (APEX LABORATORIES PRIVATE LIMITED, priority 2009, published 2012).

`Clc1ccccc1C(c1ccccc1)(c1ccccc1)n1ccnc1` [Clotrimazole, 1-(o-Chloro-α,α-diphenylbenzyl)imidazole]: in data set [1], the Protein binding result was “about 90%”.
Turning to `CC(=O)O[C@H]1C[C@@]2(C)[C@@H](C[C@@H](O)[C@H]3[C@@]4(C)CC[C@@H](O)[C@@H](C)[C@@H]4CC[C@@]32C)/C1=C(\CCC=C(C)C)C(=O)O` [Sodium Fusidate, 3μ,11μ,16β-Trihydroxy 29-nor-8μ,9β,13μ,14β-dammara-17(20)[10,21-cis], 24-dien-21-oic acid 16-acetate, sodium salt], in data set [2], the “stability as an API” value is given as “more stable than Fusidic acid”.
